Experimental data published in PubChem BioAssay (NCI).
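Step 1: Grow cells in 96-well plates. Step 2: Expose to compound for 48 hours at 5 concentrations. Step 3: Interpolate endpoints linearly; if unreached, use highest concentration. TGI marks complete inhibition of growth.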

Assays:
Experiment in all cases: growth of human tumour cells (NCI), 48 h
[1] = test system: A549 NSCLC
[2] = test system: ACHN renal
[3] = test system: BT-549 breast
[4] = test system: DU-145 prostate
[5] = test system: HCC-2998 colon
[6] = test system: HS 578T breast
[7] = test system: KM12 colon
[8] = test system: M14 melanoma
[9] = test system: NCI-H23 lung
[10] = test system: NCI/ADR-RES ovarian
[11] = test system: OVCAR-3 ovarian
[12] = test system: OVCAR-4 ovarian
[13] = test system: OVCAR-5 ovarian
[14] = test system: PC-3 prostate
[15] = test system: SF-539 CNS
[16] = test system: SK-MEL-28 melanoma
[17] = test system: SK-MEL-5 melanoma
[18] = test system: SW-620 colon
[19] = test system: U251 CNS
[20] = test system: UO-31 renal

COc1ccc(CCCCl)c(C2=NCCc3cc(OC)c(OC)cc32)c1
TGI [1]: > 100 µM
TGI [2]: > 100 µM
TGI [3]: > 100 µM
TGI [4]: > 100 µM
TGI [5]: > 100 µM
TGI [6]: > 100 µM
TGI [7]: > 100 µM
TGI [8]: > 100 µM
TGI [9]: > 100 µM
TGI [10]: > 100 µM
TGI [11]: > 100 µM
TGI [12]: > 100 µM
TGI [13]: > 100 µM
TGI [14]: > 100 µM
TGI [15]: > 100 µM
TGI [16]: > 100 µM
TGI [17]: 59.4 µM
TGI [18]: > 100 µM
TGI [19]: > 100 µM
TGI [20]: > 100 µM

O=[N+]([O-])C(=C(Nc1ccccc1)Nc1ccccc1)/C(Cl)=C(\Cl)[N+](=O)[O-]
TGI [1]: 35.6 µM
TGI [2]: 7.12 µM
TGI [3]: 13.7 µM
TGI [4]: 8.92 µM
TGI [5]: 28.9 µM
TGI [6]: 8.74 µM
TGI [7]: 14.8 µM
TGI [8]: 16.8 µM
TGI [9]: 11.2 µM
TGI [10]: 38.5 µM
TGI [11]: 12 µM
TGI [12]: 17.6 µM
TGI [13]: 22.7 µM
TGI [14]: 20.9 µM
TGI [15]: 4.15 µM
TGI [16]: 16.3 µM
TGI [17]: 5.05 µM
TGI [18]: 5.6 µM
TGI [19]: 18.1 µM
TGI [20]: 8.21 µM

c1ccc(-c2nnc(-c3ccccn3)c3c2C[C@@H]2C[C@@H]4Cc5c(-c6ccccn6)nnc(-c6ccccn6)c5[C@@H]4[C@H]32)nc1
TGI [1]: > 100 µM
TGI [2]: > 100 µM
TGI [3]: > 100 µM
TGI [4]: > 100 µM
TGI [5]: > 100 µM
TGI [6]: > 100 µM
TGI [7]: > 100 µM
TGI [8]: 43.6 µM
TGI [9]: > 100 µM
TGI [10]: > 100 µM
TGI [11]: > 100 µM
TGI [12]: > 100 µM
TGI [13]: > 100 µM
TGI [14]: > 100 µM
TGI [15]: > 100 µM
TGI [16]: 75.9 µM
TGI [17]: > 100 µM
TGI [18]: > 100 µM
TGI [19]: 89.1 µM
TGI [20]: > 100 µM

Fc1ccc(C(OCCN2CCN(CCCCl)CC2)c2ccc(F)cc2)cc1
TGI [1]: > 100 µM
TGI [2]: > 100 µM
TGI [3]: 83.6 µM
TGI [4]: 73.7 µM
TGI [5]: 42.5 µM
TGI [6]: 83.8 µM
TGI [7]: 38 µM
TGI [8]: 39.5 µM
TGI [9]: 50.5 µM
TGI [10]: 70.8 µM
TGI [11]: 74.9 µM
TGI [12]: 81.5 µM
TGI [13]: 63.9 µM
TGI [14]: > 100 µM
TGI [15]: 34.6 µM
TGI [16]: > 100 µM
TGI [17]: 32.4 µM
TGI [18]: > 100 µM
TGI [19]: > 100 µM
TGI [20]: > 100 µM

O=C1NCC(CSc2nc3cc(C4CCCc5c4[nH]c4ccccc54)ccc3o2)N1 (stereo not given)
TGI [1]: > 100 µM
TGI [2]: > 100 µM
TGI [3]: > 100 µM
TGI [4]: > 100 µM
TGI [5]: > 100 µM
TGI [6]: > 100 µM
TGI [7]: > 100 µM
TGI [8]: > 100 µM
TGI [9]: > 100 µM
TGI [10]: > 100 µM
TGI [11]: > 100 µM
TGI [12]: > 100 µM
TGI [13]: > 100 µM
TGI [14]: > 100 µM
TGI [15]: > 100 µM
TGI [16]: > 100 µM
TGI [17]: > 100 µM
TGI [18]: > 100 µM
TGI [19]: > 100 µM
TGI [20]: > 100 µM

Cc1ccc2nc3c(=O)[nH]c(=O)nc-3n(C)c2c1C
TGI [1]: > 100 µM
TGI [2]: > 100 µM
TGI [3]: > 100 µM
TGI [4]: > 100 µM
TGI [5]: > 100 µM
TGI [6]: > 100 µM
TGI [7]: > 100 µM
TGI [8]: > 100 µM
TGI [9]: > 100 µM
TGI [10]: > 100 µM
TGI [11]: > 100 µM
TGI [12]: > 100 µM
TGI [13]: > 100 µM
TGI [14]: > 100 µM
TGI [15]: > 100 µM
TGI [16]: > 100 µM
TGI [17]: > 100 µM
TGI [18]: > 100 µM
TGI [19]: > 100 µM
TGI [20]: > 100 µM

O=C(NNC(=S)Nc1ccccc1)c1cc(-c2ccccc2)nc2ccccc12
TGI [1]: 41.2 µM
TGI [2]: 91.9 µM
TGI [3]: 49.6 µM
TGI [4]: 39.1 µM
TGI [5]: 30.5 µM
TGI [6]: 65.6 µM
TGI [7]: > 100 µM
TGI [8]: 30.5 µM
TGI [9]: 37.9 µM
TGI [10]: 52.1 µM
TGI [11]: 24.4 µM
TGI [12]: 56.2 µM
TGI [13]: 36.3 µM
TGI [14]: 56.4 µM
TGI [15]: 38.7 µM
TGI [16]: 59.5 µM
TGI [17]: 27 µM
TGI [18]: 49.9 µM
TGI [19]: 30.8 µM
TGI [20]: 31 µM

CN1CCc2c3n(c4cc(Br)ccc24)[C@H](O)CCCC31 (stereo not given in full)
TGI [1]: > 10 µM
TGI [2]: > 10 µM
TGI [3]: > 10 µM
TGI [4]: > 10 µM
TGI [5]: 3.16 µM
TGI [6]: 4.57 µM
TGI [7]: 5.32 µM
TGI [8]: 3.24 µM
TGI [9]: > 10 µM
TGI [10]: > 10 µM
TGI [11]: > 10 µM
TGI [12]: > 7.44 µM
TGI [13]: > 10 µM
TGI [14]: > 10 µM
TGI [15]: 3.5 µM
TGI [16]: 3.19 µM
TGI [17]: > 8.72 µM
TGI [18]: 3.47 µM
TGI [19]: 3.35 µM
TGI [20]: > 10 µM

CCc1cccc(C(C)(C)C)c1NC(=S)N/C=C(/C#N)C(N)=O
TGI [1]: > 100 µM
TGI [2]: > 100 µM
TGI [3]: > 100 µM
TGI [4]: > 100 µM
TGI [5]: > 100 µM
TGI [6]: > 100 µM
TGI [7]: > 100 µM
TGI [8]: > 100 µM
TGI [9]: > 100 µM
TGI [10]: > 100 µM
TGI [11]: > 100 µM
TGI [12]: > 100 µM
TGI [13]: > 100 µM
TGI [14]: > 100 µM
TGI [15]: > 100 µM
TGI [16]: > 100 µM
TGI [17]: > 100 µM
TGI [18]: > 100 µM
TGI [19]: > 100 µM
TGI [20]: > 100 µM

COc1ccc(/C=C2\CCC(CNc3ccc(S(N)(=O)=O)cc3)C2=O)cc1 (stereo not given)
TGI [1]: > 100 µM
TGI [2]: 53.7 µM
TGI [3]: 33.9 µM
TGI [4]: > 88.1 µM
TGI [5]: > 100 µM
TGI [6]: > 91.1 µM
TGI [7]: 31.3 µM
TGI [8]: 36.4 µM
TGI [9]: 39.6 µM
TGI [10]: > 100 µM
TGI [11]: 22.7 µM
TGI [12]: > 81.2 µM
TGI [13]: 42.6 µM
TGI [14]: 42.2 µM
TGI [15]: > 59.2 µM
TGI [16]: 34.7 µM
TGI [17]: 31.8 µM
TGI [18]: 19.3 µM
TGI [19]: 39.2 µM
TGI [20]: 12.2 µM
